Key:
[1] = Storage stability of amorphous tenofovir alafenamide hemifumarate and premixes, PXRD pattern; format: physicochemical
Description: The amorphous form of tenofovir alafenamide hemifumarate of the present disclosure may be characterized by a PXRD pattern. Thus, the PXRD patterns of the amorphous form of tenofovir alafenamide hemifumarate were obtained on BRUKER D-8 Discover powder diffractometer equipped with goniometer of θ/2θ configuration and Lynx Eye detector. The Cu-anode X-ray tube was operated at 40 kV and 30 mA. The experiments were conducted over the 2θ range of 2.0°-50.0°, 0.030° step size and 0.4 seconds step time.
Thus, the PXRD patterns of several embodiments of the present disclosure were obtained on BRUKER D-8 Discover powder diffractometer equipped with goniometer of θ/2θ configuration and Lynx Eye detector. The Cu-anode X-ray tube was operated at 40 kV and 30 mA. The experiments were conducted over the 2θ range of 2.0°-50.0°, 0.030° step size and 0.4 seconds step time.

[2] = Storage stability of amorphous tenofovir alafenamide hemifumarate and premixes, HPLC purity
Description: As used herein, a compound or pharmaceutical composition is considered “stable” where the HPLC purity of the compound or premix changes by less than about 1% when stored at 5±3° C. and/or at 25° C./60% relative humidity (RH). In certain embodiments, the “stable” compound or premix is stored at 5±3° C. In other embodiments, the “stable” compound or premix is stored at 25° C./60% relative humidity (RH).
Further, the stability of certain embodiments of the premix of amorphous tenofovir alafenamide hemifumarate can be measured by PXRD and HPLC. Thus, HPLC analyses were also performed. HPLC separations were performed on a Waters Alliance 2695 HPLC system with UV detector. Data was collected and analyzed with Empower chromatography software or equivalent. The separation was performed on an X-Bridge Phenyl, 250×4.6 mm, 5 μm column with a mobile phase flow rate of 0.7 mL/min and injection volume of 10 μL. Separations were performed by gradient elution with mobile 1.75 mM tetrabutylammonium bisulfate (pH 2.0) in 5% THF (mobile phase A) and 70:30 acetonitrile:methanol (mobile phase B) as specified in the table below.
The column oven temp was 20° C. and UV detector was set to 260 nm. The purity of the premix was also measured by HPLC using similar conditions.

## CC(C)OC(=O)[C@H](C)N[P@](=O)(CO[C@H](C)Cn1cnc2c(N)ncnc21)Oc1ccccc1 [tenofovir alafenamide hemifumarate]
[1]; at 5 ± 3° C., 3 months
  PXRD: Stable
[1]; at 5 ± 3° C., 6 months
  PXRD: Stable
[1]; at 5 ± 3° C., Initial
  PXRD: Amorphous
[1]; at 25° C./60% RH, 3 months
  PXRD: Stable
[1]; at 25° C./60% RH, 6 months
  PXRD: Stable
[1]; at 25° C./60% RH, Initial
  PXRD: Amorphous
[2]; at 5 ± 3° C., 3 months
  HPLC purity (%): 99.45%
[2]; at 5 ± 3° C., 6 months
  HPLC purity (%): 99.54%
[2]; at 5 ± 3° C., Initial
  HPLC purity (%): 99.53%
[2]; at 25° C./60% RH, 3 months
  HPLC purity (%): 99.36%
[2]; at 25° C./60% RH, 6 months
  HPLC purity (%): 99.48%
[2]; at 25° C./60% RH, Initial
  HPLC purity (%): 99.53%
[2]; stored at 5±3° C. and at 25° C./60% RH, 3 and 6 months, HPLC and PXRD
  degradation or change in PXRD pattern on storage: no significant degradation or change in PXRD pattern
